Among the test systems are SN12C renal; HS 578T breast; KM12 colon; SF-295 CNS; UO-31 renal; SNB-19 CNS; SF-539 CNS; UACC-257 melanoma; MCF7 breast; U251 CNS; MDA-N; HCT-15 colon; HT29 colon; IGROV1 ovarian; HCC-2998 colon; SR leukemia.
What all share (experiment): NCI anticancer screen, dose series, 48 h

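Step 1: Grow cells in 96-well plates. Step 2: Expose to compound for 48 hours at 5 concentrations. Step 3: Interpolate endpoints linearly; if unreached, use highest concentration. At the TGI there is no net growth.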

For `NC(Cc1ccccc1)(C(=O)O)C(=O)O`, the TGI in the experiment on SN12C renal, with HS 578T breast, with KM12 colon, with SF-295 CNS, in the experiment with UO-31 renal and with SNB-19 CNS was more than 100 µM throughout. The TGI in the experiment on SF-539 CNS, in the experiment on UACC-257 melanoma, with MCF7 breast, with U251 CNS, in the experiment with MDA-N and in the experiment with HCT-15 colon was more than 100 µM throughout. Besides, the TGI in the experiment on HT29 colon, with IGROV1 ovarian and with HCC-2998 colon was more than 100 µM throughout.
For `NC(=O)NC(=O)c1cccc(NC(=O)CBr)c1`, the TGI is 0.391 µM with SN12C renal; less than 0.0505 µM in the experiment on HS 578T breast; 14.4 µM in the experiment with KM12 colon; 0.152 µM with SR leukemia; 2.7 µM in the experiment with SF-295 CNS; 1.68 µM in the experiment with UO-31 renal. Besides, the TGI in the experiment on SNB-19 CNS is 13.1 µM; in the experiment on UACC-257 melanoma, 0.623 µM; with MCF7 breast, 1.61 µM; with U251 CNS it was 0.0582 µM; in the experiment on MDA-N, less than 0.0226 µM; in the experiment with HCT-15 colon it was 0.384 µM. Besides, the TGI is less than 0.0291 µM in the experiment with HT29 colon and 0.368 µM with IGROV1 ovarian.
For `N#CC(Cc1ccccc1Br)N(CCC1=CCCCC1)C(c1ccccc1)c1ccccc1` (stereo unspecified), the TGI with HS 578T breast, in the experiment with KM12 colon, in the experiment on SF-295 CNS, in the experiment on UO-31 renal, in the experiment with SNB-19 CNS and in the experiment on UACC-257 melanoma was more than 100 µM each time. Moreover, the TGI in the experiment with MCF7 breast, with U251 CNS, in the experiment on MDA-N, with HCT-15 colon, with HT29 colon and in the experiment on IGROV1 ovarian was more than 100 µM throughout. The molecule further came in with a TGI in the experiment on HCC-2998 colon of more than 100 µM.
For the molecule `CCOC(=O)/C=C1\c2ccccc2C(=O)N1CC(=O)OCC`, the TGI in the experiment on SN12C renal, in the experiment on HS 578T breast, in the experiment with KM12 colon, with SF-295 CNS, in the experiment on UO-31 renal and in the experiment with SNB-19 CNS was more than 100 µM each time. Moreover, the TGI in the experiment on UACC-257 melanoma, with U251 CNS, in the experiment with MDA-N, in the experiment with HCT-15 colon and with IGROV1 ovarian was more than 100 µM in each case.
For `C/C=C/C(=O)N1C(=O)OC[C@@H]1c1ccccc1`, the TGI with SN12C renal was 37.2 µM; with HS 578T breast, 76.2 µM; in the experiment on KM12 colon, 29.3 µM; in the experiment on SF-295 CNS, more than 100 µM; with UO-31 renal it was 35.2 µM; in the experiment with SNB-19 CNS it was 41.4 µM. Moreover, the TGI in the experiment with SF-539 CNS amounted to 38.5 µM; in the experiment with UACC-257 melanoma, 39.9 µM; with MCF7 breast, 31.5 µM; in the experiment with U251 CNS, 48.5 µM; in the experiment on MDA-N, 43.8 µM; with HCT-15 colon, 53.8 µM. Also, the TGI is 33.7 µM with HT29 colon, 37.1 µM in the experiment with IGROV1 ovarian and 41.3 µM in the experiment on HCC-2998 colon.
On to `C=C1CN(Cc2ccccc2)[C@@H]2CCCCC[C@H](C#N)[C@H]12`, for which the TGI was more than 100 µM in the experiment on SN12C renal; more than 100 µM with KM12 colon; more than 100 µM in the experiment on SR leukemia; more than 30.7 µM in the experiment on SF-295 CNS; more than 100 µM in the experiment with UO-31 renal; more than 100 µM in the experiment on SNB-19 CNS. In addition, the TGI in the experiment with SF-539 CNS, with UACC-257 melanoma, in the experiment with MCF7 breast, in the experiment with U251 CNS, with MDA-N and with HCT-15 colon was more than 100 µM in each case. Also, the TGI with HT29 colon, with IGROV1 ovarian and in the experiment on HCC-2998 colon was more than 100 µM throughout.
As to `Cc1c2c(n(CCN(C)C)c1C)NN=C(C#N)S2(=O)=O`, the TGI in the experiment with SN12C renal, in the experiment with HS 578T breast, in the experiment with KM12 colon, in the experiment with UO-31 renal, in the experiment on SNB-19 CNS and with SF-539 CNS was more than 100 µM throughout. Besides, the TGI in the experiment on UACC-257 melanoma, in the experiment with MCF7 breast, in the experiment with U251 CNS, in the experiment on MDA-N, in the experiment with HCT-15 colon and with HT29 colon was more than 100 µM each time. For the same molecule, the TGI with IGROV1 ovarian and in the experiment on HCC-2998 colon was more than 100 µM throughout.
As to `O=C(c1cccc(C(=O)c2ccc3c4c(cccc24)C(=O)N(c2ccccc2)C3=O)c1)c1ccc2c3c(cccc13)C(=O)N(c1ccccc1)C2=O`, the TGI in the experiment on SN12C renal, with HS 578T breast, in the experiment on KM12 colon, in the experiment on SF-295 CNS, in the experiment with UO-31 renal and with SNB-19 CNS was more than 100 µM throughout. Moreover, the TGI with SF-539 CNS, with UACC-257 melanoma, in the experiment with MCF7 breast, in the experiment on U251 CNS, in the experiment with MDA-N and with HCT-15 colon was more than 100 µM throughout. Further, the TGI with HT29 colon, in the experiment on IGROV1 ovarian and with HCC-2998 colon was more than 100 µM each time.
For the molecule `CCOC(=O)c1cnc(-n2[nH]c3c(c2=O)CCCC3)[nH]c1=O`, the TGI in the experiment on SN12C renal, with HS 578T breast, in the experiment with KM12 colon, with SR leukemia, in the experiment with SF-295 CNS and with UO-31 renal was more than 100 µM in each case. Moreover, the TGI in the experiment with SNB-19 CNS, in the experiment on SF-539 CNS, with UACC-257 melanoma, in the experiment on U251 CNS, in the experiment on MDA-N and with HCT-15 colon was more than 100 µM each time. Besides, the TGI in the experiment with HT29 colon and in the experiment with IGROV1 ovarian was more than 100 µM each time.
As for `Cc1ccc(S(=O)(=O)Oc2nc3ccccc3nc2N(S(=O)(=O)c2ccc(C)cc2)S(=O)(=O)c2ccc(C)cc2)cc1`, the TGI in the experiment with SN12C renal, with HS 578T breast, in the experiment with KM12 colon, with SF-295 CNS, in the experiment with UO-31 renal and with SNB-19 CNS was more than 100 µM each time. Also, the TGI in the experiment with SF-539 CNS, in the experiment with UACC-257 melanoma, with MCF7 breast, with U251 CNS, in the experiment on MDA-N and with HCT-15 colon was more than 100 µM each time. The TGI with HT29 colon, in the experiment on IGROV1 ovarian and in the experiment with HCC-2998 colon was more than 100 µM in each case.

The record behind these values is PubChem BioAssay (NCI).
